Assay results: patent publication US7452887B2, “Quinoline- and isoquinoline-based compounds exhibiting ATP-utilizing enzyme inhibitory activity, and compositions, and uses thereof” (Amphora Discovery Corporation, priority 2004, dated 2008)

What was measured:
Test in all cases: HTS ATP-utilizing enzyme assay, off-chip mobility-shift (Caliper HTS 250)
Assay type in all cases: biochemical
Conditions in all cases: test compound 10 μM, kinase listed = active (greater than six-sigma from the mean activity of inactive compounds)
DYRK2 = biological target: T1, DYRK2 (Homo sapiens, UniProt Q92630)
T1 sequence (Q92630 1-601): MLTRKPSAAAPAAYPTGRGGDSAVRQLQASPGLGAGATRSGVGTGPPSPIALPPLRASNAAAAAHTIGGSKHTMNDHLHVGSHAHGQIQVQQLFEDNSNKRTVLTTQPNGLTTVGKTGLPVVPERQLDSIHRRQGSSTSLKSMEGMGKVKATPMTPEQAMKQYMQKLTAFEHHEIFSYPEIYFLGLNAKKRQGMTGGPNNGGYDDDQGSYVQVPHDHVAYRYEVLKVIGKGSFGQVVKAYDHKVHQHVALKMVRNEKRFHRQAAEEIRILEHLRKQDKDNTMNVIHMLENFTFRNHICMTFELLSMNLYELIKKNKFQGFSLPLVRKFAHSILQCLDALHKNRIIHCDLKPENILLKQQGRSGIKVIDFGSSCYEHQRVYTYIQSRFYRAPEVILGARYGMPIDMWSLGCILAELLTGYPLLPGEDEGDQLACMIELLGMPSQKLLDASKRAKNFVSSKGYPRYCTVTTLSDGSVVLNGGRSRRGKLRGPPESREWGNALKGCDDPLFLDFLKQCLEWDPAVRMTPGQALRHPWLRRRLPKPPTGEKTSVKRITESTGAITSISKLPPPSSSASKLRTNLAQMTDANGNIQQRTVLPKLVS
In short: (§1)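 Test compound at 10 μM final was incubated with kinase and peptide substrate in HEPES pH 7.5 buffer with Triton X-100 and BSA for 2.5 hrs at 20° C. to 22° C., then stopped with EDTA. Inhibition came from the substrate-to-phosphorylated-product ratio on a microfluidic mobility-shift read. EDTA wells served as 100% control.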

BMX = biological target: T2, BMX (Homo sapiens, UniProt P51813)
T2 sequence (P51813 1-675): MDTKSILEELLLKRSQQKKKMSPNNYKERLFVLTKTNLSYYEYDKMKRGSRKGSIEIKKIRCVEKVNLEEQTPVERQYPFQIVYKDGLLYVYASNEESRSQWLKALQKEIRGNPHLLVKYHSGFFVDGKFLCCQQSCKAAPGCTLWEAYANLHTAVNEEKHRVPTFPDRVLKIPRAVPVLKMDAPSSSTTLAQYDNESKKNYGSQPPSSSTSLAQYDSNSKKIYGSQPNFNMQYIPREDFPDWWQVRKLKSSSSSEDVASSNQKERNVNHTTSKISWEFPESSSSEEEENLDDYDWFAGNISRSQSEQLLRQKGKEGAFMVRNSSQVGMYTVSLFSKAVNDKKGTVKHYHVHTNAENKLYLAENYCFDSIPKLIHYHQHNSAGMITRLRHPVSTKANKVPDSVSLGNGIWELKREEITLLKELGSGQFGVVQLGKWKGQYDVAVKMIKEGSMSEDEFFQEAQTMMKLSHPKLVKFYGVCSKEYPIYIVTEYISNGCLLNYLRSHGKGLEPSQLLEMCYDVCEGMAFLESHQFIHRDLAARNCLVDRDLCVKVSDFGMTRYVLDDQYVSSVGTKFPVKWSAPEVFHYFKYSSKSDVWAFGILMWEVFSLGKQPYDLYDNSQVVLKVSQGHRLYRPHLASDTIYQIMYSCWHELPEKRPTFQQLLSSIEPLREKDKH
In short: as §1

C-TAK1 = C-TAK1 (Homo sapiens, UniProt P27448)
Chain of C-TAK1 (P27448 whole entry): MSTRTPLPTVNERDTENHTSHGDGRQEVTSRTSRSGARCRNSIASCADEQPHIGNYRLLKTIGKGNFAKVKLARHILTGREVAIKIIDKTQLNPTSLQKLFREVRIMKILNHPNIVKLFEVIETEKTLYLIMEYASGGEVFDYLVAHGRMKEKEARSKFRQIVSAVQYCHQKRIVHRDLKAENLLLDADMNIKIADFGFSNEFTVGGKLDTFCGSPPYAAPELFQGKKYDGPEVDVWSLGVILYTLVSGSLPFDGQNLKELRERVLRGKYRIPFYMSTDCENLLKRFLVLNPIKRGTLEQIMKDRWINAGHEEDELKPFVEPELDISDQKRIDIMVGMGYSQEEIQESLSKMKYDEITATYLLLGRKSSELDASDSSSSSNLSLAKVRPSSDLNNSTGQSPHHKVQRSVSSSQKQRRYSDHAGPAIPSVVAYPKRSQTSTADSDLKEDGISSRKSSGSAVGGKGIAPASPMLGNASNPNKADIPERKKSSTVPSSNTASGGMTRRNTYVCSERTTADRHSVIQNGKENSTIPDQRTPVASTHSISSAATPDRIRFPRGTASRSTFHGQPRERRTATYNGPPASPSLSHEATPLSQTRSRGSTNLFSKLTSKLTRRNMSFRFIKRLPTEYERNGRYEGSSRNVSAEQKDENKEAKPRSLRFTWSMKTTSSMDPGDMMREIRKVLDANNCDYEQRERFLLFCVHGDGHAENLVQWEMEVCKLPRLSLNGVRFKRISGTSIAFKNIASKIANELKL
In short: as §1

Activity (DYRK2) | Activity (BMX) | Activity (C-TAK1) | Compound
DYRK2 | BMX |  | COc1ccc(-c2ccc3nccc(N(C)c4ccc(N5CCN(C)CC5)cc4)c3c2)cc1 [6-(4-methoxyphenyl)-N-methyl-N-(4-(4-methylpiperazin-1-yl)phenyl)quinolin-4-amine]
DYRK2 | BMX | C-TAK1 | CN1CCN(c2ccc(Nc3ccnc4ccc(-c5ccc6ccccc6c5)cc34)cc2)CC1 [N-(4-(4-methylpiperazin-1-yl)phenyl)-6-(naphthalen-2-yl)quinolin-4-amine]
DYRK2 | BMX |  | Cc1ccccc1-c1ccc2nccc(Nc3ccc(N4CCN(C)CC4)cc3)c2c1 [N-(4-(4-methylpiperazin-1-yl)phenyl)-6-o-tolylquinolin-4-amine]
DYRK2 |  |  | COc1ccc(-c2ccc3nccc(Nc4ccc(N5CCNCC5)cc4)c3c2)cc1 [6-(4-methoxyphenyl)-N-(4-(piperazin-1-yl)phenyl)quinolin-4-amine]
 | BMX | C-TAK1 | CN1CCN(c2ccc(Nc3ccnc4ccc(-c5cccc6ccccc56)cc34)cc2)CC1 [N-(4-(4-methylpiperazin-1-yl)phenyl)-6-(naphthalen-1-yl)quinolin-4-amine]
DYRK2 |  |  | CN1CCN(c2ccc(Nc3ccnc4ccc(-c5ccncc5)cc34)cc2)CC1 [N-(4-(4-methylpiperazin-1-yl)phenyl)-6-(pyridin-4-yl)quinolin-4-amine]
DYRK2 |  | C-TAK1 | CN1CCN(c2ccc(Nc3ccnc4ccc(-c5ccc(F)cc5)cc34)cc2)CC1 [6-(4-fluorophenyl)-N-(4-(4-methylpiperazin-1-yl)phenyl)quinolin-4-amine]
DYRK2 |  |  | CN1CCN(c2ccc(Nc3ccnc4ccc(-c5ccc(O)cc5)cc34)cc2)CC1 [4-(4-(4-(4-methylpiperazin-1-yl)phenylamino)quinolin-6-yl)phenol]
